Measurements taken from patent publication US20220204473A1, “COMPOUND AS IRAK INHIBITOR” (SHANGHAI MEIYUE BIOTECH DEVELOPMENT CO., LTD., priority 2018, published 2022).

What was measured:
[1] = Stability in human liver microsomes; format: in vitro ADME; details: for half-life at 1 μM: pH 7.4, ∞ = no obvious metabolism found during assay, read-out: Stability test in liver microsomes t1/2, Human
Method: (§1) 1. Preparation of buffer C:
(§2) Buffer A: 1.0 L of 0.1 M monopotassium phosphate buffer (containing 1.0 mM EDTA);
(§3) Buffer A: 1.0 L of 0.1 M dipotassium phosphate buffer (containing 1.0 mM EDTA);
(§4) Buffer C: Buffer A was added to 700 mL of buffer B until pH reached 7.4.
(§5) The test compound and the reference were separately dissolved in DMSO to give 10 mM stocks.
(§6) 500 μM solution: 10 μL of 10 mM stock solution was added to 190 μL of acetonitrile;
(§7) 1.5 μM dosing solution (in liver microsome solution):
(§8) 18.75 μL of 20 mg/mL liver microsomes were added to 479.75 μL of buffer C, followed by 1.5 μL of 500 μM solution. The mixture was gently shaken to mix well.
(§9) NADPH was weighed, to which an appropriate amount of buffer C was added to prepare a 6 mM NADPH solution.
(§10) 5. 30 μL of 1.5 μM dosing solution was added to wells of a 96-well plate set for different time points (0 min, 5 min, 15 min, 30 min, 45 min) in duplicate.
(§11) 6. Preparation of 0 min samples: 135 μL of acetonitrile (containing internal standard) was added to the 0 min wells, followed by 15 μL of 6 mM NADPH solution.
(§12) 7. The 96-well plate containing 1.5 μM dosing solution and NADPH solution were preheated for 5 min in a water bath at 37° C.
(§13) 8. 15 μL of pre-heated 6 mM NADPH solution was added to wells set for 5 min, 15 min, 30 min and 45 min to start the reaction.
(§14) 9. At time points of 5 min, 15 min, 30 min and 45 min, the reaction was terminated by adding 135 μL of acetonitrile (containing internal standard). The mixtures were vortexed for 10 min and centrifuged at 5594×g for 15 min (Thermo Multifuge×3R).
(§15) 10. 50 μL of the supernatant was transferred to wells of a 96-well plate containing 50 μL of water. The samples were mixed and finally subjected to LC-MS/MS analysis.

[2] = Stability in mouse liver microsomes; format: in vitro ADME; details: for half-life at 1 μM: pH 7.4, ∞ = no obvious metabolism found during assay, read-out: Stability test in liver microsomes t1/2, Mouse
Method: as §1, §2, §3, §4, §5, §6, §7, §8, §9, §10, §11, §12, §13, §14, §15

[3] = tested on: TNF-α release in LPS-induced Balb/c female mice; experiment: Inhibition of TNF-α release in LPS-induced Balb/c female mice; format: in vivo, mouse; parameters: concentration or dose not given beside the values; details: oral gavage 5 h before LPS induction, serum 1.5 h after stimulation
Method: In the normal control groups, the animals received an intraperitoneal injection of normal saline (10 mL/kg) and in the model groups, the animals received LPS stimulation (Sigma CAT #L2630, i.p., 10 mL/kg, 0.2 mg/kg). During the assay, to the test compounds, DMSO, Solutol and 10 mM PBS were sequentially added to prepare a solution or suspension of required concentration for administration. For the vehicle, DMSO, Solutol and 10 mM PBS were mixed in a volume ratio of 5:15:80. In each of the groups, the animals were administered through oral gavage (10 mL/kg) 5 h before LPS (or saline) stimulation at predetermined doses, and euthanized with CO2 at 1.5 h after the stimulation for cardiac blood collection. The whole blood was not anticoagulated, incubated in wet ice for 1.5 h, and centrifuged at 2000×g at 4° C. for 10 min to separate the serum. The serum was frozen at −80° C. for TNF-α assay. Quantification of the TNF-α was done with TNF-α ELISA kit according to the manufacturer's instruction.

human IRAK4 = target: T1, human IRAK4 (Homo sapiens, UniProt Q9NWZ3); experiment: IRAK4 MSA (Mobility-Shift Assay) at Km ATP; format: biochemical; details: GST-IRAK4 1 nM, ATP 37 μM (Km); read-out: IC50 for inhibiting human IRAK4 kinase
T1 construct: purchased Cama (so in the source)
T1 sequence (Q9NWZ3 1-460): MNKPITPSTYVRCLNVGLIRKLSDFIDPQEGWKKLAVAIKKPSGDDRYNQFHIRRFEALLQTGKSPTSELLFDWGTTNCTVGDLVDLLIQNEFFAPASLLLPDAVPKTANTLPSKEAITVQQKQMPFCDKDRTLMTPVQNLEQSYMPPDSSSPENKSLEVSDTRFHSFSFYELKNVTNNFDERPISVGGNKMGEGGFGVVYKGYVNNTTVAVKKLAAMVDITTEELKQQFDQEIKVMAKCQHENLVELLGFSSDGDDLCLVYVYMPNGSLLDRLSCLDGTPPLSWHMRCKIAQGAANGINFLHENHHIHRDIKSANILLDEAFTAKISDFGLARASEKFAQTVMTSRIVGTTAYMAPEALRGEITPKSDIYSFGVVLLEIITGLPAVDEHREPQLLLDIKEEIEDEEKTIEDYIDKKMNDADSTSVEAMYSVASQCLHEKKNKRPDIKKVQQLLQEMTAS
Method: A recombinant fusion protein of N-terminal GST (glutathione-S-transferase) and human IRAK4 was used as enzyme (GST-IRAK4, kinase IRAK4 (Cama)) at a final concentration of 1 nM; ATP (Sigma) was at a final concentration of 37 μM; the substrates used for the kinase reaction were a 5-FAM (5-carboxyfluorescein)-labeled polypeptide (5-FAM-[…]-COOH) and a substrate peptide FAM-P8 (GL Biochem) at final concentrations of […].
In this assay, 500 μM solutions of the compounds were prepared in 100% DMSO, and serially 4-fold diluted to the 10th concentration gradient with 100% DMSO, followed by a 10-fold dilution in the compound buffer (50 mM HEPES. pH 7.5, 0.00015% Brij-35) to give intermediate dilutions of the compounds at a final concentration of 10 μM-0.04 nM containing 10% DMSO respectively, 5 μL of the dilutions were transferred into a black 384-well plate respectively.
IRAK4 was diluted to 2.5 nM in the kinase buffer (50 mM HEPES, pH 7.5, 0.00015% Brij-35, 2 mM DTT). 10 μL of the IRAK4 dilution was transferred to the 384-well plate and co-incubated with the compound for 10-15 min.
The substrate and ATP were diluted to 12.5 μM and 92.5 μM with reaction buffer (50 mM HEPES, pH 7.5, 0.00015% Brij-35, 10 mM MgCl2), respectively. 10 μL of the dilutions were transferred to a 384-well plate and incubated at 28° C. for 1 h respectively. The reaction was terminated by adding 25 μL of 50 mM EDTA to the 384-well plate.
The inhibition rates of IRAK4 by the compounds were calculated by measuring the rate of phosphorylated substrate using a Caliper EZ Reader (PerkinElmer) and the IC50 values were calculated by XL-fit software.

[4] = Stability in rat liver microsomes; format: in vitro ADME; details: for half-life at 1 μM: pH 7.4, ∞ = no obvious metabolism found during assay, read-out: Stability test in liver microsomes t1/2, Rat; for Stability test in liver microsomes t1/2, Rat: ∞ = no obvious metabolism found during assay
Method: as §1, §2, §3, §4, §5, §6, §7, §8, §9, §10, §11, §12, §13, §14, §15

[5] = ∞ = no obvious metabolism found during assay

| Structure (SMILES) | half-life at 1 μM [1] [h] | half-life at 1 μM [2] [h] | Inhibition rate of TNF-α [3] [%] | IC50 (human IRAK4) [nM] | half-life at 1 μM [4] [h] | Stability test in liver microsomes t1/2, Rat [4] | Stability test in liver microsomes t1/2, Mouse [2, 5] | Stability test in liver microsomes t1/2, Human [1, 5] |
| --- | --- | --- | --- | --- | --- | --- | --- | --- |
| COc1cc2nn([C@H]3CC[C@H](O)CC3)cc2cc1NC(=O)c1cccc(C(F)(F)F)n1 [MY-004-127-1] | 12.8 | 768 | 89.29 | 5.3 | 5.1 | – | – | – |
| CN(C)c1cc2nn([C@H]3C[C@H](C(C)(C)O)C3)cc2cc1NC(=O)c1cccc(C(F)(F)F)n1 [MY-004-089] | 35.6 | 9.4 | 91.27 | 6.8 | 4.87 | – | – | – |
| COc1cc2nn([C@H]3CC[C@@](C)(O)CC3)cc2cc1NC(=O)c1cccc(C(F)(F)F)n1 [MY-004-126-2] | 428 | 13.4 | 94.11 | 1 | – | ∞ | – | – |
| CC(C)(O)c1cc2nn([C@H]3CC[C@](C)(O)CC3)cc2cc1NC(=O)c1cccc(C(C)(F)F)n1 [MY-004-165] | 53.9 | – | 88.99 | 4.2 | – | ∞ | ∞ | – |
| COc1cc2nn([C@H]3CC[C@](C)(O)CC3)cc2cc1NC(=O)c1cccc(C(F)(F)F)n1 [MY-004-126-1] | 7.82 | 5.9 | 94.43 | 2.7 | 6.63 | – | – | – |
| CN(C)c1cc2nn([C@H]3CC[C@H](O)CC3)cc2cc1NC(=O)c1cccc(C(F)(F)F)n1 [MY-004-153] | – | 4.72 | 88.42 | 1.9 | 4.17 | – | – | ∞ |
